Test results: patent US20060275812A1, “Assay for agonists and antagonists of ion channels and for regulators of genetic expression” (University of Pittsburgh of the Commonwealth System of …, priority 2005, published 2006)
“Also recorded” adds a separate entry of the source.

Tests used:
rat TRPV1 receptor = rat TRPV1 receptor (Rattus norvegicus, UniProt O35433); experiment: Whole cell patch clamp recordings of capsaicin induced currents
TRPV1 [1] = target: T1, TRPV1 (Rattus norvegicus, UniProt O35433); experiment: Intracellular calcium measurement (FURA-2); format: cell-based
T1 construct: expressed in transfected cells; host or cells: ICP4/ICP27-complementing 7b cells (Vero-derived) infected with HSV-1 vector vTT
T1 sequence (O35433 whole entry): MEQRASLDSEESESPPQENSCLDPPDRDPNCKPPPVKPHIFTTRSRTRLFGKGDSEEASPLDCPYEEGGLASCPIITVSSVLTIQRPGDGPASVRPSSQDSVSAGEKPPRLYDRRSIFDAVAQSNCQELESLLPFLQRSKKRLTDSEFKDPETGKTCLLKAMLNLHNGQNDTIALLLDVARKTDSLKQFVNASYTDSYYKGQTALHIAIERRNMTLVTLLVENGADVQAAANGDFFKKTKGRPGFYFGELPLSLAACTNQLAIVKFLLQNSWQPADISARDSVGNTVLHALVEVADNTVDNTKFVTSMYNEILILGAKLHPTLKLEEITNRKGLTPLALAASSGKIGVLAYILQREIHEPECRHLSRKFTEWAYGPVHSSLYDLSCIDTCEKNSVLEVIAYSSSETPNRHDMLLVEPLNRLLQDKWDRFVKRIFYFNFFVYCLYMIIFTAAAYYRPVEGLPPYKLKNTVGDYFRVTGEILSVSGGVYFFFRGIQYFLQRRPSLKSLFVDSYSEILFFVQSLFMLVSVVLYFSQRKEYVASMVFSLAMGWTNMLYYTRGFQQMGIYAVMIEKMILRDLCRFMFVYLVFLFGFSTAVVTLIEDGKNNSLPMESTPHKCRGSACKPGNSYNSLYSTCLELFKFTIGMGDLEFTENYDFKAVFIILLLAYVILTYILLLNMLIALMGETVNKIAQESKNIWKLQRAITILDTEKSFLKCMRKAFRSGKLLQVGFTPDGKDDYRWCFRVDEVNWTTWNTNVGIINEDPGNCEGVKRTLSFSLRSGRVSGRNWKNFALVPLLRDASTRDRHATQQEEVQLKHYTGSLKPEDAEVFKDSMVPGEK
Procedure: Free intracellular calcium was measured by photon scanning on a dual excitation fluorimeter (PTI, Lawrenceville, N.J.). vTT or QOZ infected 7b cells were plated in 6 well plates containing 13.5×20 mm coverslips. Infected cells (8 hpi, 3 PFU/cell) were rinsed with 1× Hank's balanced salt solution (HBSS) and loaded with 2 μM FURA-2 (Molecular Probes Inc., Eugene, Oreg.) (Sneddon et al., 2000) for 1 hour at 37° C. in a 5% CO2 incubator. Coverslips with FURA-2 loaded cells were then placed in a cuvette containing HBBS and then separately subjected to capsaicin at either 3 or 0.3 μM concentrations. Calcium flux following the application of each concentration of capsaicin was measured at 2 Hz and graphed. Results were calibrated by adding 5 μM ionomycin to obtain the maximum fluorescence ratio, followed by addition of 10 mM EGTA to obtain the minimum fluorescence ratio. A Kd of FURA-2 for calcium of 224 nM was assumed.

TRPV1 [2] = target: T1, TRPV1; experiment: Viral growth assay (vTT / vHG titers by plaque assay); format: cell-based
TRPV1 [3] = target: T1, TRPV1; experiment: Capsaicin selection against vTT in mixed vHG:vTT infections; format: cell-based
[4] = vTT infected cells, BIM pre-incubation, n=3
[5] = vTT infected cells, mean±SEM, n=8
[6] = vTT infected 7b cells, 5 μM ionomycin

Sequence of rat TRPV1 receptor (O35433 whole entry): as above

CN(C)CCCn1cc(C2=C(c3c[nH]c4ccccc34)C(=O)NC2=O)c2ccccc21.Cl [BIM, bisindolylmaleimide I HCl]
effect of pre-incubation on capsaicin currents (rat TRPV1 receptor; vTT infected 7b cells, compared to BIM untreated): significantly lower amplitude and rapidly desensitizing currents
Capsaicin (nA) (rat TRPV1 receptor; [4]): −2.2 ± 1.2 nA
Capsaicin Desensitization Time-course (tau, s) (rat TRPV1 receptor; [4]): 53.4 ± 15.4 s

O=C(O)CN(CCOCCOCCN(CC(=O)O)CC(=O)O)CC(=O)O [EGTA]
intracellular calcium signal after capsaicin and ionomycin (TRPV1 [1]; vTT infected 7b cells, 10 mM EGTA): return to baseline levels

CCCC(=O)O[C@@H]1[C@@H](C)[C@@]2(O)[C@@H](C=C(CO)C[C@]3(O)C(=O)C(C)=C[C@@H]23)[C@@H]2C(C)(C)[C@]12OC(=O)CCC [PDBu, phorbol 12,13-dibutyrate]
effect on capsaicin current after the first phase of desensitization (rat TRPV1 receptor; vTT infected 7b cells, PDBu 5 μM): did not affect the current; also recorded: could not be enhanced

C=C(C)[C@]12C[C@@H](C)[C@@]34O[C@](Cc5ccccc5)(O[C@@H]1[C@@H]3C=C(COC(=O)Cc1ccc(O)c(OC)c1)C[C@]1(O)C(=O)C(C)=C[C@@H]41)O2 [RTX, resiniferatoxin]
growth ratio (GR), highest observed difference (TRPV1 [2]; 1 μM RTX, 72 hpi, p<0.05, n=4): 474
capsaicin dose relative to RTX dose giving similar reduction in vTT viral titers (TRPV1 [2]; nanomolar RTX, all time points): ~100 fold

COc1cccc(NC(=O)/C=C/c2ccc(Cl)cc2)c1 [SB-366791]
vTT viral titers in the presence of capsaicin (TRPV1 [2]; 1 μM and 10 μM SB-366791 + 0.5 μM capsaicin, all time points, p<0.05, n=4): dose dependent rescue
replication of control vector vHG (TRPV1 [2]; CAP and SB-366791 together): did not affect
replication of vHG or vTT, antagonist alone (TRPV1 [2]; SB-366791 alone at 1 and 10 μM): did not affect

COc1cc(CNC(=O)CCCC/C=C/C(C)C)ccc1O [capsaicin]
lowest concentration with significant differences in replication between vHG and vTT (TRPV1 [2]): 0.3 µM
vTT replication (TRPV1 [2]): specifically inhibited
vHG titers (TRPV1 [2]; 3 μM CAP alone): without affecting
growth ratio (GR), vHG to vTT virus yield, greatest differential (TRPV1 [2]; 3 μM capsaicin, 72 hpi, p<0.05, n=4): ~500 fold
vHG (GFP+) percent output after two passages (TRPV1 [3]; 3 μM capsaicin, 0.005% vHG input (1:20,000 vHG:vTT)): 95%
vHG (GFP+) percent output after one passage (TRPV1 [3]; 3 μM capsaicin, 0.005% vHG input (1:20,000 vHG:vTT), 72 hpi): 66%
vHG proportion after two passages (TRPV1 [3]; capsaicin, 1:100,000 vHG input): 40%
intracellular calcium response (TRPV1 [1]; QOZ (control) infected cells, 0.3 or 3 μM capsaicin): no effect
intracellular calcium (TRPV1 [1]; vTT infected 7b cells, 8 hpi, 3 μM capsaicin): significant increase
intracellular calcium response (TRPV1 [1]; vTT infected 7b cells, 0.3 μM capsaicin, versus 3 μM): smaller response
Capsaicin (nA) (rat TRPV1 receptor; no virus (uninfected cells)): No
response to capsaicin stimulation (rat TRPV1 receptor; vHG (control) infected 7b cells): do not respond; also recorded: did not respond
Capsaicin (nA) (rat TRPV1 receptor; vHG infected cells): No
inward current following stimulation with capsaicin (rat TRPV1 receptor; vTT infected 7b cells, 0.5 μM capsaicin, FIG. 3 trace): 9 nA
Capsaicin (nA) (rat TRPV1 receptor; [5]): −6.0 ± 0.6 nA
Capsaicin Desensitization Time-course (tau, s) (rat TRPV1 receptor; [5]): 280.6 ± 45.1 s

C[C@H](CCC(=O)O)C[C@H](C)C[C@H](C)C(=O)/C=C(\O)[C@H](C)C[C@H](C)C/C=C/[C@@H](C)[C@@H](O)[C@@H](C)[C@@H](O)C[C@@H]1CC[C@@](C)([C@H]2CC[C@@](C)([C@@H](C)O)O2)O1 [ionomycin]
calcium influx (TRPV1 [1]; QOZ infected cells, 5 μM ionomycin): maximal calcium influx
intracellular calcium response after 0.3 μM capsaicin (TRPV1 [1]; [6]): further increased
intracellular calcium response after 3 μM capsaicin (TRPV1 [1]; [6]): did not further increase

N.N.N.N.N.N.N.N.N.N.N.N.N.N.[Cl-].[Cl-].[Cl-].[Cl-].[Cl-].[Cl-].[O-2].[O-2].[Ru+3].[Ru+3].[Ru+4] [ruthenium red]
replication of vTT in the presence of capsaicin (TRPV1 [2]): completely restored
vector replication, antagonist alone (TRPV1 [2]): unaffected
antagonism of capsaicin-induced vTT specific currents (rat TRPV1 receptor; vTT infected 7b cells, RuR 5 μM in FIG. 3): brought the current back to baseline; also recorded: antagonized
